Reference: PMC3345088 (Journal of Immunology (Baltimore, Md. : 1950), 2012)

Test system: purified HLA class II DR, DP and DQ molecules
Test: MHC-peptide binding assays
Design: species or system human
Conditions: allele as in inferred restricting HLA allele column

| Substance | Binding to the allelic variant shared by all responders |
| --- | --- |
| ESAT-6 73–87: 15-mer peptide epitope, residues 73–87 of ESAT-6 (Rv3875) (ARTISEAGQAMASTE; UniProt P9WNK7 73-87, looked up, fragment) | high affinity |
| CFP10 52–66: 15-mer peptide epitope, residues 52–66 of CFP10 (Rv3874) | high affinity |
